Assays:
[1] = target: T1, 5-hydroxytryptamine receptor 2A (Homo sapiens, UniProt P28223); assay: Affinity for 5-hydroxytryptamine 2A receptor
[2] = target: T2, 5-hydroxytryptamine receptor 2C (Homo sapiens, UniProt P28335); assay: Affinity for 5-hydroxytryptamine 2C receptor
T2 sequence (P28335 whole entry): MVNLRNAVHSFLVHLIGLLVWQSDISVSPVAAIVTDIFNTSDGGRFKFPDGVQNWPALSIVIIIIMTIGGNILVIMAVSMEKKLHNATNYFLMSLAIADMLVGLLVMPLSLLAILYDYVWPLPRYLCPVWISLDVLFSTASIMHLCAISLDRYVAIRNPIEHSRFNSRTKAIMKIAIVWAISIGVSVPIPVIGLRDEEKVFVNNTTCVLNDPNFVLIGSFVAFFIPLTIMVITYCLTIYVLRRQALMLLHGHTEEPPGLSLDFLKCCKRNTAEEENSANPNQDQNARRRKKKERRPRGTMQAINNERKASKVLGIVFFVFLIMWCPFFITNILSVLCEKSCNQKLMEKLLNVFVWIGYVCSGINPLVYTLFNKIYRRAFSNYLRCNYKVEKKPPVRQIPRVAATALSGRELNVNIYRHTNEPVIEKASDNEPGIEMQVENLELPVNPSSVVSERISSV

[3] = target: Serotonin 2 receptors; 5-HT2a & 5-HT2c (Homo sapiens) (UniProt P28223+P28335); assay: Relative affinity for 5-HT2C over 5-HT2A receptors; type: protein assay
Serotonin 2 receptors; 5-HT2a & 5-HT2c (Homo sapiens), sequence (P28223 whole entry, looked up, one chain of several): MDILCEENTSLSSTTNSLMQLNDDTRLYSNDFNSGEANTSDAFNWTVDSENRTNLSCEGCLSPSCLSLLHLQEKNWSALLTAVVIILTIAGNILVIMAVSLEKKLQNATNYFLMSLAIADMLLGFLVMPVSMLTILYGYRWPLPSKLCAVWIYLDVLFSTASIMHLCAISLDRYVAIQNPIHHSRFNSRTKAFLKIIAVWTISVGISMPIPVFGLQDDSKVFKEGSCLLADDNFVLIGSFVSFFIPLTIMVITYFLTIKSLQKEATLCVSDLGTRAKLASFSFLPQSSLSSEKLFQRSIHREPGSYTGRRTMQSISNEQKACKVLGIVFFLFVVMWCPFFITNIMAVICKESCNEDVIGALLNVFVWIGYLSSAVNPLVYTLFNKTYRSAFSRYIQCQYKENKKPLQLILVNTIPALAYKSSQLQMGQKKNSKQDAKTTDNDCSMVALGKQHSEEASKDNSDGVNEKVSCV

[4] = target: T1, 5-hydroxytryptamine receptor 2A; assay: Binding affinity towards 5-hydroxytryptamine 2A receptor was determined at a concentration of 0.00001 mol/L
[5] = target: T3, 5-hydroxytryptamine receptor 2C (Homo sapiens) (UniProt P28335); assay: Binding affinity towards 5-hydroxytryptamine 2C receptor was determined at a concentration of 0.00001 mol/L
T3 sequence (whole entry): T2 sequence (P28335 whole entry)

[6] = target: T1, 5-hydroxytryptamine receptor 2A; assay: Binding affinity towards 5-hydroxytryptamine 2A receptor was determined at a concentration of 0.000001 mol/L
[7] = target: T3, 5-hydroxytryptamine receptor 2C (Homo sapiens); assay: Binding affinity towards 5-hydroxytryptamine 2C receptor was determined at a concentration of 0.000001 mol/L

T1 sequence (P28223 whole entry): as the sequence (P28223 whole entry, looked up, one chain of several) above

SMILES	Ki [1] [µM]	Ki [2] [µM]	Ratio [3]	inhibition [4] [%]	inhibition [5] [%]	inhibition [6] [%]	inhibition [7] [%]
COc1ccccc1Cc1c(N)nc(SCCN2CCN(Cc3cccc(C(F)(F)F)c3)CC2)nc1N	0.0604	0.0055	11				
Nc1cc(N)nc(SCCCN2CCN(Cc3ccc([N+](=O)[O-])cc3)CC2)n1				54	21		
Nc1nc(SCCN2CCN(Cc3ccc([N+](=O)[O-])cc3)CC2)nc(N)c1Cc1ccccc1						99	67
Nc1nc(SCCN2CCN(Cc3cccc(C(F)(F)F)c3)CC2)nc(N)c1Cc1ccccc1O	0.0932	0.0062	15				
COc1cc(Cc2c(N)nc(SCCN3CCN(Cc4ccccc4Cl)CC3)nc2N)cc(OC)c1OC	0.0043	0.0183	0.2				
Nc1nc(SCCN2CCN(Cc3ccccc3Cl)CC2)nc(N)c1Cc1ccccc1	0.0183	0.0119	1.5				
CC(C)Oc1ccccc1Cc1c(N)nc(SCCN2CCN(Cc3cccc(C(F)(F)F)c3)CC2)nc1N	0.121	0.0086	14				
COc1cccc(Cc2c(N)nc(SCCN3CCN(Cc4cccc(C(F)(F)F)c4)CC3)nc2N)c1	0.0446	0.0049	9.1				
CCOc1ccccc1Cc1c(N)nc(SCCN2CCN(Cc3cccc(C(F)(F)F)c3)CC2)nc1N	0.0699	0.0091	7.7				
COc1ccccc1Cc1c(N)nc(SCCN2CCN(Cc3ccccc3C(F)(F)F)CC2)nc1N	0.0477	0.0077	6.2				
COc1ccc(Cc2c(N)nc(SCCN3CCN(Cc4ccc(C)cc4)CC3)nc2N)cc1	0.0125	0.3	0.04				
Nc1nc(SCCN2CCN(Cc3ccccc3C(F)(F)F)CC2)nc(N)c1Cc1ccccc1	0.0611	0.0214	2.9				
Nc1cc(N)nc(SCCN2CCN(Cc3ccc([N+](=O)[O-])cc3)CC2)n1				89	77		
Nc1nc(SCCN2CCN(Cc3ccccc3Cl)CC2)nc(N)c1Cc1ccccc1Cl	0.0118	0.0087	1.4				
COc1ccc(Cc2c(N)nc(SCCN3CCN(Cc4ccccc4Cl)CC3)nc2N)cc1	0.0057	0.0104	0.6				
Nc1nc(SCCN2CCN(Cc3ccc([N+](=O)[O-])cc3)CC2)nc(N)c1CC1CCCCC1				10	32		
Nc1nc(SCCN2CCN(Cc3ccccc3Cl)CC2)nc(N)c1Cc1ccccc1O	0.0228	0.0055	4.2				
COc1ccc(Cc2c(N)nc(SCCN3CCN(Cc4ccccc4C)CC3)nc2N)cc1	0.0115	0.0164	0.7				
